# How the values were obtained:
# Format in all cases: functional
# [1] = test system: Streptococcus pneumoniae; experiment: Antimicrobial activity against Streptococcus pneumoniae clinical isolates by broth microdilution method in presence of clavulanate
# [2] = test system: Streptococcus pneumoniae; experiment: Antimicrobial activity against penicillin-susceptible Streptococcus pneumoniae clinical isolates by broth microdilution method in presence of clavulanate
# [3] = test system: Streptococcus pneumoniae; experiment: Antimicrobial activity against penicillin-intermediate Streptococcus pneumoniae clinical isolates by broth microdilution method in presence of clavulanate
# [4] = test system: Streptococcus pneumoniae; experiment: Antimicrobial activity against penicillin-resistant Streptococcus pneumoniae clinical isolates by broth microdilution method in presence of clavulanate
# [5] = test system: Streptococcus pneumoniae; experiment: Antimicrobial activity against Streptococcus pneumoniae clinical isolates assessed as percent susceptible isolates by broth microdilution method in presence of clavulanate
# [6] = test system: Streptococcus pneumoniae; experiment: Antimicrobial activity against penicillin-susceptible Streptococcus pneumoniae clinical isolates assessed as percent susceptible isolates by broth microdilution method in presence of clavulanate
# [7] = test system: Streptococcus pneumoniae; experiment: Antimicrobial activity against penicillin-intermediate Streptococcus pneumoniae clinical isolates assessed as percent susceptible isolates by broth microdilution method in presence of clavulanate
# [8] = test system: Streptococcus pneumoniae; experiment: Antimicrobial activity against penicillin-resistant Streptococcus pneumoniae clinical isolates assessed as percent susceptible isolates by broth microdilution method in presence of clavulanate
# [9] = test system: Streptococcus pneumoniae; experiment: Antimicrobial activity against Streptococcus pneumoniae clinical isolates assessed as resistant isolates by broth microdilution method in presence of clavulanate
# [10] = test system: Streptococcus pneumoniae; experiment: Antimicrobial activity against penicillin-susceptible Streptococcus pneumoniae clinical isolates assessed as resistant isolates by broth microdilution method in presence of clavulanate
# [11] = test system: Streptococcus pneumoniae; experiment: Antimicrobial activity against penicillin-intermediate Streptococcus pneumoniae clinical isolates assessed as resistant isolates by broth microdilution method in presence of clavulanate
# [12] = test system: Streptococcus pneumoniae; experiment: Antimicrobial activity against penicillin-resistant Streptococcus pneumoniae clinical isolates assessed as resistant isolates by broth microdilution method in presence of clavulanate
structure (smiles),measurement,setting,value
CC1(C)S[C@@H]2[C@H](NC(=O)[C@H](N)c3ccc(O)cc3)C(=O)N2[C@H]1C(=O)O [AMOXICILLIN],MIC90,[1],2 µg/mL
same,MIC90,[2],0.03 µg/mL
same,MIC90,[3],1 µg/mL
same,MIC90,[4],8 µg/mL
same,Activity,[5],93.1%
same,Activity,[6],100%
same,Activity,[7],99.5%
same,Activity,[8],53.4%
same,Activity,[9],1.5%
same,Activity,[10],0%
same,Activity,[11],0%
same,Activity,[12],10.1%

# From ChEMBL document CHEMBL1649268, “Comparative in vitro activity profile of oritavancin against recent gram-positive clinical isolates” (2009)
